The results in this text go back to US20110251285A1, “COMBINATIONS OF PRESERVATIVES FOR OPHTHALMIC COMPOSITIONS” (ALLERGAN, INC., priority 2010, published 2011).

The assay concerns S. aureus, P. aeruginosa, c. albicans, E. coli and/or A. niger. Description: abbreviated preservative efficacy test against USP, EP-A and EP-B criteria. The assay is classed as cell-based. The conditions noted are these: 20 ppm BAK alone. On the procedure:
Each of these formulations is tested by performing an abbreviated preservative efficacy test using test organisms S. aureus, P. aeruginosa, c. albicans, E. coli and/or A. niger. The formulations are tested against United States Pharmacopeia Preservative Efficacy Test (USP), European Pharmacopeia Efficacy Test-A (EP-A) and European Pharmacopeia Efficacy Test-B (EP-B) criteria as indicated. Ten (10) ml of each formulation is challenged with approximately 10^5 cfu/ml of test organism. At appropriate time intervals, the amount of bacterial and fungal survivors are assayed using Dey Engley broth (DE) as the neutralizer media. DE, along with filtration, is sufficient at neutralizing the antimicrobial agents in the compositions. One (1) ml of each sample is diluted into nine (9) ml of DE. One (1) ml of the 1:10 dilution is filtered through a 0.45 µm filter and washed with 100 ml of a saline/polysorbate 80 solution. After washing the filtrate a second time with 100 ml of saline/polysorbate 80 solution, the filtrate is placed onto a TSA plate for bacteria and SAB for fungi.

For the substance benzalkonium chloride [BAK], the “Ph Eur-B & A criteria” value is given as “failed”.
